From ChEMBL document CHEMBL5230089, “Small-Molecule Fms-like Tyrosine Kinase 3 Inhibitors: An Attractive and Efficient Method for the Treatment of Acute Myeloid Leukemia” (J Med Chem, 2020) come the findings set out here.

What is called GI50 is the concentration giving 50% growth inhibition. A word on the IC50: it is the point on the concentration scale where inhibition reaches its midpoint. For orientation: Kd means the constant that tells how readily two partners part at equilibrium. Usually EC50 stands for the midpoint of the concentration-response curve. Low values mean greater potency, high ones weaker potency.

Each structure is given as a SMILES string.

The test system of assay [1] is MV4-11. Description: Growth inhibition of human MV4-11 cells assessed as reduction in cell viability at 50 uM measured after 72 hrs by CCK8 assay. It counts as functional. A general note: Tetrazolium assays rely on reduction of a dye to a coloured formazan, in cell work by metabolically active cells.
The target of assay [2] is T1, Receptor-type tyrosine-protein kinase FLT3 (Homo sapiens, UniProt P36888).
T1 sequence (P36888 whole entry): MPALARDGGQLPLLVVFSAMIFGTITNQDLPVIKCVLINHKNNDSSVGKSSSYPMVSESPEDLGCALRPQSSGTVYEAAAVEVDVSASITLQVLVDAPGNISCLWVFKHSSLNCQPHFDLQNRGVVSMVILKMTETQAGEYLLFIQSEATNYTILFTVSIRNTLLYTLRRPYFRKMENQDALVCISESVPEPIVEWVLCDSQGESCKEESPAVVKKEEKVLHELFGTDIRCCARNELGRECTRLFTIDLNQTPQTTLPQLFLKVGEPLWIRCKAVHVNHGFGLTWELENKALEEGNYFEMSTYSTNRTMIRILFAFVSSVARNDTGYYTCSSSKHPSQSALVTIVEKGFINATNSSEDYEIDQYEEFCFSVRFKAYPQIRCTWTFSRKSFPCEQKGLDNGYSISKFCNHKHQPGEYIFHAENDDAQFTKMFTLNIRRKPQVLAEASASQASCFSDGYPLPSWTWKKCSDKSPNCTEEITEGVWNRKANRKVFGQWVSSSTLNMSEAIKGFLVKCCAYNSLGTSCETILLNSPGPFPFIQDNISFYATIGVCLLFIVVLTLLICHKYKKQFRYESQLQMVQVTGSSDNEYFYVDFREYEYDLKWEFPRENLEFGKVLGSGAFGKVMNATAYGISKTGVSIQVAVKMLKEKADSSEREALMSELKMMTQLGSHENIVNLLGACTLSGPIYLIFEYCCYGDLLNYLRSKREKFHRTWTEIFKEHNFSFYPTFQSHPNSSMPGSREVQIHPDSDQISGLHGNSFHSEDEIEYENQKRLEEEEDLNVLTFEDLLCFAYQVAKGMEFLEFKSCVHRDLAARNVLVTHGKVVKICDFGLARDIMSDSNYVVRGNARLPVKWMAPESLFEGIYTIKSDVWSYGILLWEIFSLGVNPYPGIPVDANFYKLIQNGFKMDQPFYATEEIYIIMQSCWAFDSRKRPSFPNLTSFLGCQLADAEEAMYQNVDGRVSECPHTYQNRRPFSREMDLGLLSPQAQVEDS
The experiment in a line: Inhibition of FLT3 (unknown origin).

The subject of assay [3] is RS4-11. The experiment in a line: Growth inhibition human RS4-11 cell assessed as reduction in cell viability at 50 uM measured after 72 hrs by CCK8 assay. Format: functional.
Assay [4] deals with BaF3. The experiment in a line: cells. Particulars: Mus musculus, BaF3, 72 h.
Assay [5] concerns MOLM-14. The experiment in a line: cells. To be noted: Homo sapiens, MOLM-14, 72 h.
In assay [6] the test system is MOLM-13. Description: cells. To be noted: Homo sapiens, MOLM-13, 72 h.
Description: Cytotoxicity against human MOLM-13 cells assessed as reduction in cell viability incubated for 72 hrs
For assay [7], the system named is MOLM-13. The experiment in a line: Cytotoxicity against human MOLM-13 cells assessed as cell viability incubated for 72 hrs by Cell titer-blue assay. Format: functional, cell-based. Particulars: MOLM-13, 72 h.
Assay [8] has as its system MOLM-13. Description: cells. To be noted: Homo sapiens, MOLM-13, 72 h. This is another data set of the same source.
Assay [9] has as its system MOLM-14. The experiment in a line: Cytotoxicity against human MOLM-14 cells assessed as reduction in cell viability incubated for 72 hrs. Format: functional, cell-based. Particulars: MOLM-14, 72 h.
The subject of assay [10] is MV4-11. The experiment in a line: cells. To be noted: Homo sapiens, MV4-11, 72 h.
Description: Cytotoxicity against human MV4-11 cells assessed as cell viability incubated for 72 hrs by Cell titer-blue assay
Assay [11] relates to MV4-11. The experiment in a line: cells. Particulars: Homo sapiens, MV4-11, 48 h.
Description: Antiproliferative activity against human MV4-11 cells assessed as reduction in cell viability after 48 hrs by Alamar Blue assay
Assay [12] addresses T2, Receptor-type tyrosine-protein kinase FLT3 (Homo sapiens, UniProt P36888, ITD).
Assay [13] deals with T3, Aurora kinase A (Homo sapiens, UniProt O14965).
T3 sequence (O14965 whole entry): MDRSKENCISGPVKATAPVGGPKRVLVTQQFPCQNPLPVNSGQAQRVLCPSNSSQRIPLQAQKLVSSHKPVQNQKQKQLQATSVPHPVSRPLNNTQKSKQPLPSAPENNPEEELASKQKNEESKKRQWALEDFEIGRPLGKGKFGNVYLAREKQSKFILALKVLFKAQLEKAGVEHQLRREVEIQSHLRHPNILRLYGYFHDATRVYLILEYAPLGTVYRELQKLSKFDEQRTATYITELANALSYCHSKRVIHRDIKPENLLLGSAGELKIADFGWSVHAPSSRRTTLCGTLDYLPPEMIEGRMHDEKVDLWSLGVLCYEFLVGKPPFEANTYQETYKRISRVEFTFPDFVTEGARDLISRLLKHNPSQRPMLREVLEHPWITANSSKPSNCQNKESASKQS
The experiment in a line: Inhibition of Aurora-A (unknown origin) by kinase-glo luminescent assay.

For assay [14], the system named is MV4-11. Description: Growth inhibition of human MV4-11 cells incubated for 72 hrs by CCK-8 assay. It counts as functional.
The target in assay [15] is Receptor-type tyrosine-protein kinase FLT3 (Homo sapiens, UniProt P36888, D835Y). Description: Inhibition of FLT3-D835Y mutant (unknown origin).
Assay [16] has as its system HL-60. The experiment in a line: Growth inhibition of human HL-60 cells incubated for 4 days by WST assay. It counts as functional. To be noted: HL-60, 96 h, time 4 day.
Assay [17] relates to MOLM-13. Description: Cytotoxicity activity against human MOLM-13 cells assessed as reduction in cell viability measured after 48 hrs. It counts as functional, cell-based. Particulars: MOLM-13, 48 h.
Assay [18] relates to MV4-11. Description: Cytotoxicity activity against human MV4-11 cells assessed as reduction in cell viability measured after 48 hrs. To be noted: MV4-11, 48 h. It counts as functional, cell-based.
Assay [19] concerns the target Receptor-type tyrosine-protein kinase FLT3 (Homo sapiens, UniProt P36888). The experiment in a line: Binding affinity to human FLT3 assessed as dissociation constant.
Assay [20] addresses T3, Aurora kinase A. The experiment in a line: Inhibition of Aurora-A (unknown origin).
Assay [21] concerns the target T1, Receptor-type tyrosine-protein kinase FLT3. Description: Inhibition of FLT3 (unknown origin) by ADP-Glo kinase assay. Background: ADP-Glo turns the ADP formed in a reaction into a luminescent signal.
The test system of assay [22] is MOLM-13. Description: Antiproliferative activity against human MOLM-13 cells assessed as reduction in cell viability measured after 48 hrs by MTT assay. Format: functional, cell-based. Particulars: MOLM-13, 48 h.
The target in assay [23] is T2, Receptor-type tyrosine-protein kinase FLT3. The experiment in a line: Inhibition of FLT3-ITD mutant (unknown origin) expressed in mouse BaF3 cells assessed as inhibition. Format: cell-based.
Assay [24] is described as follows: Antiproliferative activity against human MOLM16 cells expressing FLT3-ITD mutant assessed as inhibition of cell proliferation measured after 72 hrs by celltiter-glo luminescent cell viability assay. It counts as functional, cell-based, MOLM-16. Particulars: MOLM16, 72 h. (ATP-based viability assays read luminescence as a measure of living cells.)
Assay [25] relates to MV4-11. The experiment in a line: Antiproliferative activity against human MV4-11 cells assessed as reduction in cell proliferation measured after 24 hrs by MTT assay. Format: functional, cell-based. Particulars: MV4-11, 24 h.
Assay [26] deals with Tyrosine-protein kinase JAK2 (Homo sapiens, UniProt O60674). The experiment in a line: Inhibition of JAK2 (unknown origin) in presence of ATP.
Tyrosine-protein kinase JAK2, sequence (O60674 whole entry): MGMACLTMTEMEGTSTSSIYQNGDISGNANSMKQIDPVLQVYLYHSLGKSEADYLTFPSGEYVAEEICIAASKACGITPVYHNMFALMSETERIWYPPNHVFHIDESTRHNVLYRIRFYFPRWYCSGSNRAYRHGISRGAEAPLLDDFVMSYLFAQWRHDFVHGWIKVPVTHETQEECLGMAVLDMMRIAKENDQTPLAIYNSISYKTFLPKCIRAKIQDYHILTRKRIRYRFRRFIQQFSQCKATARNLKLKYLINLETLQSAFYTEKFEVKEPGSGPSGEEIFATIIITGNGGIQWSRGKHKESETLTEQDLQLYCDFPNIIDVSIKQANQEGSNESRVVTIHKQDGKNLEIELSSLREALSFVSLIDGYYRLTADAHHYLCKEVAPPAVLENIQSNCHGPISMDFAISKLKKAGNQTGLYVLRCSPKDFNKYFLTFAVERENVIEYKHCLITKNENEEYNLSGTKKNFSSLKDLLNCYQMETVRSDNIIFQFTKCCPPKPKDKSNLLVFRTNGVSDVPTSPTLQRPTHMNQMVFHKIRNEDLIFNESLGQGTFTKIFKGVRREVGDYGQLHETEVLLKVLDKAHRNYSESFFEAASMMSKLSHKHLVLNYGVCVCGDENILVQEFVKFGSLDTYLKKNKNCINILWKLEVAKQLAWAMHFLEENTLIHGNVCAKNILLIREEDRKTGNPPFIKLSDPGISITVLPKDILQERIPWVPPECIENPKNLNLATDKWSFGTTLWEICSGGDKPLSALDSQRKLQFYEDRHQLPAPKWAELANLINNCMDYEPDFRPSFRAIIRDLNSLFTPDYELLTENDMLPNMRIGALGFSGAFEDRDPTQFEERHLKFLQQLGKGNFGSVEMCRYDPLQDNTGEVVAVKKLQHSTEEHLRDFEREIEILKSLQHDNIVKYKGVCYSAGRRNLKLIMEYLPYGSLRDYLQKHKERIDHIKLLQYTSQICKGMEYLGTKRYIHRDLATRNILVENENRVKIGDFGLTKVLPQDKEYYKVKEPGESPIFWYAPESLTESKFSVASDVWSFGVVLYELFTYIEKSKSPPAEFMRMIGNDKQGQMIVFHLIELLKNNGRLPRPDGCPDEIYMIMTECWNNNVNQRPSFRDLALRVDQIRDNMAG

As for `O=C(c1ccc(CN2CCCCC2)cc1)N1CCc2nc(-c3cc4cc(F)ccc4[nH]c3=O)[nH]c2C1`, the GI50 in assay [1] came to 260 nM; in assay [3] it was 4860 nM. The molecule further registered an IC50 in assay [2] of 0.57 nM.

Consider `CC1(COc2ccc3c(c2)ncn3-c2ccc3cccc(N4CCC(N)CC4)c3n2)COC1` [CRENOLANIB], for which the IC50 came to 1.3 nM in [4]; 2 nM in assay [5]; 4.9 nM in assay [6]; 2.9 nM in [7]; 2 nM in assay [8]; 2 nM in assay [9]. In addition, the IC50 in assay [10] was 0.92 nM; in assay [11], 1.3 nM.

As for `COc1ccc(C(=O)NC(=O)Nc2ccc3c(c2)NC(=O)/C3=C\c2[nH]c(C)c(C(=O)NCCN3CCCC3)c2C)c(F)c1`, the IC50 in assay [12] was found to be 0.5 nM; in assay [13], 0.4 nM.

As to `Cc1cc2ncc(-c3ccc(NC(=O)Nc4cc(C(C)(C)C)on4)cc3)nc2cc1C`, the IC50 in assay [12] worked out at 71 nM.

Regarding `CC1=CC(=O)N(Nc2nc(-c3cccs3)nc3sc(C)c(C)c23)C1=O`, the IC50 in [12] is 16 nM; in [15], 21 nM. The GI50 in assay [14] was 216 nM; in assay [16] it was greater than 10000 nM.

Regarding `CC(=O)OC[C@H]1O[C@@H](N2N=C(C(F)(F)F)/C(=N\Nc3cccc(C(F)(F)F)c3)C2=O)[C@H](OC(C)=O)[C@@H](OC(C)=O)[C@@H]1OC(C)=O`, the values for the IC50 in assay [17] and in [18] were 4040 nM and 4700 nM, respectively.

For the molecule `CC(C)Nc1ccnc(Nc2cccc(-c3cccnc3)c2)n1`, in [19], the Kd was found to be 3.6 nM. The molecule also yielded an EC50 in [10] of 25 nM.

`CC(C)(C)c1cc(NC(=O)Nc2ncc(CCNc3ncnc4[nH]c(-c5ccccc5)cc34)s2)no1`: the IC50 is 7 nM in [6], 67 nM in [12], 15 nM in assay [20] and 7 nM in assay [11].

For `COc1cc2c(Oc3ccc(NC(=O)Nc4cccc(C)c4)cc3F)ccnc2cc1OCCCN1CCOCC1`, the IC50 in assay [21] came out at 9 nM; in assay [22] it was 0.24 nM; in [23], 1.1 nM.

`C[C@]12O[C@H](C[C@H](O)[C@H]1O)n1c3ccccc3c3c4c(c5c6ccccc6n2c5c31)C(=O)NC4=O`: the IC50 is 27 nM in assay [24], 13 nM in assay [8] and 12.3 nM in assay [25].

For `Cn1c2ccccc2c2c3c(c4c5ccccc5n(CCC#N)c4c21)CNC3=O` [GO-6976], the half-inhibitory concentration (IC50) in [26] came out at 67.2 nM.

The molecule `CC(C)(C)c1cc(NC(=O)Nc2ccc(-n3nc(-c4ccc(OCCN5CCOCC5)cc4)c4c(N)ncnc43)cc2)no1` came in with a GI50 in assay [14] of less than 0.3 nM.
